Where two headings read alike, the source gives them in different places.

The text below walks through data of patent US5952504A, “4-amino-3-acylnaphthyridine derivatives” (Yungjin Pharmaceutical Company, Ltd., priority 1995, dated 1999).

In one data set the test system is stress-induced ulcer. The data set can be described thus: Inhibition of stress-induced ulcer. In kind it is in vivo, male Sprague-Dawley rats. The conditions noted are these: Rattus norvegicus; oral, water immersion stress; read-out: Anti-ulcer activity (ED50), Stress. Here is the method:
4) Inhibition of stress-induced ulcer Inhibitory activity of the inventive compound on the stress-induced ulcer was evaluated by using male Spraque-Dawley rats. Thus, rats were starved for 24 hours prior to carrying out the experiment. Stress is an important factor for causing gastric ulcer, and was applied to rats by immersing them in water. Then, the inventive compounds shown in Table 3 or omeprazole as a control was orally administered, and the inhibitions of ulcer by the action of the test compounds were observed.

The subject of data set [1] is indomethacin-induced lesions. The data set can be described thus: Inhibition of indomethacin-induced lesions. The conditions noted are these: Rattus norvegicus; oral, before indomethacin 35 mg/kg s.c.; read-out: Anti-ulcer activity (ED50), Indomethacin. The class given is in vivo, male Sprague-Dawley rats. Here is the method:
3) Inhibition of indomethacin-induced lesions Inhibitory activities of the inventive compounds on the indomethacin-induced lesions were measured by using male Sprague-Dawley rats. Thus, rats were starved for 48 hours and prohibited from being supplied with water for 2 hours, and 35 mg/kg of indomethacin (Sigma Co.) as a causative of gastric lesions was subcutaneously administered. Before indomethacin treatment, the inventive compounds shown in Table 3 or omeprazole as a positive control was orally administered, and the inhibitions of lesions by the action of the test compounds were observed.

A further data set deals with ethanol-induced lesions. The data set can be described thus: Inhibition of ethanol-induced lesions. The class given is in vivo, male Sprague-Dawley rats. Conditions: Rattus norvegicus; oral, 30 min before absolute ethanol (5 ml/kg); read-out: Anti-ulcer activity (ED50), Ethanol. As to the method: 1) Inhibition of ethanol-induced lesions Inhibitory activity of the inventive compound on the ethanol-induced lesions was measured by using male Sprague-Dawley rats weighing 180-200 g. Thus, rats were starved for 24 hours, and the inventive compounds shown in Table 3 or omeprazole as a positive control was orally administered. Thirty minutes later, absolute ethanol (5 ml/kg) was orally administered. 1.5 hours later, the stomach was removed, and the degree of the wound of the stomach was measured.

The subject of another data set is gastric secretion. The data set can be described thus: Inhibition of gastric secretion (Shay ligation). The class given is in vivo, male Sprague-Dawley rats. The conditions noted are these: 4 hours, pylorus-ligated rats; for ED50: Rattus norvegicus, into duodenum, read-out: Gastric juice Secretion Inhibition (ED50); for Gastric juice Secretion Inhibition (% at 12.5 mg/kg): 12.5 mg/kg into duodenum. Here is the method: 2. Inhibition of Gastric Secretion
Inhibition of gastric secretion was measured by following the procedure of Shay ligation (Gastroenterology, 1954, 26, 903). Thus, male Sprague-Dawleyrats weighing 180-200 g were starved for 24 hours and their pylorus were ligated. Then, the inventive compounds shown in Table 2 or omeprazole as a positive control was administered into duodenum. Four hours later, the stomach was removed, and the acidity and amount of gastric juice were measured. By comparing the measured values with the acidity and amount of the gastric juice of the stomach of the reference group to which no test compound was administered, the inhibition of gastric secretion was calculated.

Another data set relates to mepirizole-induced ulcer. The data set can be described thus: Inhibition of mepirizole-induced ulcer. In kind it is in vivo, male Sprague-Dawley rats. The conditions noted are these: Rattus norvegicus; oral, 30 min before mepirizole (250 mg/kg); duodenum; read-out: Anti-ulcer activity (ED50), Mepirizole. As to the method: 2) Inhibition of mepirizole-induced ulcer Inhibitory activity of the inventive compound on the mepirizole-induced ulcer was measured by using male Spraque-Dawley rats weighing 200-230 g. Thus, rats were not starved, and the inventive compounds shown in Table 3 or omeprazole as a positive control was orally administered. Thirty minutes later, mepirizole suspended in 1% CMC (250 mg/kg) was orally administered. […], the duodena were removed. The degree of the ulcer thereof was measured.

Another data set deals with T1, H^+ /K^+ ATPase (Oryctolagus cuniculus, UniProt P27112).
T1 construct: from tissue; host or cells: rabbit gastric mucosa, membrane vesicles (differential and Ficoll density gradient centrifugation)
T1 sequence (P27112 2-1035 limits assumed): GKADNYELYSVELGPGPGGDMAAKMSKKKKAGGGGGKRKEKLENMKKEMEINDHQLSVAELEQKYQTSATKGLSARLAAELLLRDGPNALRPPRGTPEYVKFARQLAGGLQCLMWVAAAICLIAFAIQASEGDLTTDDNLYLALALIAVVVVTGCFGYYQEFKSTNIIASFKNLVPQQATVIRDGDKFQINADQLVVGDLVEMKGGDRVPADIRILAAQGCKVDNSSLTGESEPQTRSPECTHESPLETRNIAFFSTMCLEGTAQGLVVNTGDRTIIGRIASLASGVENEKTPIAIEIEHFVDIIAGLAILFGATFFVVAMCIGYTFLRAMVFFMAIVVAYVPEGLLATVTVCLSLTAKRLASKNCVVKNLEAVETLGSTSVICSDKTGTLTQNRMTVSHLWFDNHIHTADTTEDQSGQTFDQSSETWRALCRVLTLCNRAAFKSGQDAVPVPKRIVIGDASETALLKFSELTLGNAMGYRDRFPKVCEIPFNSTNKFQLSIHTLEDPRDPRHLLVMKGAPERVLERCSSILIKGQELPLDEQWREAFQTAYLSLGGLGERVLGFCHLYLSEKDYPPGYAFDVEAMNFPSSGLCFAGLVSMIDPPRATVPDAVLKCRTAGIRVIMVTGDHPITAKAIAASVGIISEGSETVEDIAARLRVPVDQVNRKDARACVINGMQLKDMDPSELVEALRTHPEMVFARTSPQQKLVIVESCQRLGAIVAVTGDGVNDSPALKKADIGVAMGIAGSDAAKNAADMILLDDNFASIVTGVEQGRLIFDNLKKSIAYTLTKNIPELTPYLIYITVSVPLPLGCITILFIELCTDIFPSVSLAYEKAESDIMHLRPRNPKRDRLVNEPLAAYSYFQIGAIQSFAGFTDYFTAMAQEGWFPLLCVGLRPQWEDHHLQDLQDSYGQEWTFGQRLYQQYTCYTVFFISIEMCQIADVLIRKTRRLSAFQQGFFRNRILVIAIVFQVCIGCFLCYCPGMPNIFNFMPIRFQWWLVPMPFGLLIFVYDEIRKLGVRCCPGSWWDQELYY
T1 sequence (P18597 whole entry partner): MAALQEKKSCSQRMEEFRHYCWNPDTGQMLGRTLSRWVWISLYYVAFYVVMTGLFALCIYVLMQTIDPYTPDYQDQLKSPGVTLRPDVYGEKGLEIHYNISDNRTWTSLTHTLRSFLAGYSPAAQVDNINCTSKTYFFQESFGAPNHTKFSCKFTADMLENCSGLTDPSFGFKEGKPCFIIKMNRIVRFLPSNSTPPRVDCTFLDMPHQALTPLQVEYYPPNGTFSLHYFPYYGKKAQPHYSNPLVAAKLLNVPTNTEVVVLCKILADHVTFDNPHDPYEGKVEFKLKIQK
The data set can be described thus: Inhibition of H^+ /K^+ ATPase (rabbit gastric mucosa vesicles). In kind it is biochemical. Here is the method:
1. Inhibition of H^+ /K^+ ATPase Inhibition of H^+ /K^+ ATPase, a proton carrying enzyme, was measured by following the procedure of Saccomani et al. [Biochim. Biophy. Acta., 465, 311-330 (1977)]. Thus, a homogenate of the gastric mucose membrane of rabbit was used to prepare vesicles containing H^+ /K^+ ATPase by employing differential centrifugation and discontinuous density gradient centrifugation in Ficoll. […] Omeprazole was used as a control. A solution containing 2 mM of magnesium chloride, 40 mM of imidazole buffer (pH 7.4), 10 mM of potassium chloride and […] of ATP was added to the mixture. The resulting mixture was incubated at 37° C. for 15 minutes and the reaction was terminated by adding 1 ml of ice-cold 22% solution of trichloroacetic acid. Enzyme activity was calculated by measuring the separated inorganic phosphate by following the method of Fiske and Subbarow [J. Biol. Chem., 66, 375-440 (1925)].

Data set [2] concerns acetic acid-induced ulcer. The data set can be described thus: Inhibition of acetic acid-induced ulcer. The class given is in vivo, male Sprague-Dawley rats. Conditions: oral, 10 days. Here is the method:
5) Inhibition of acetic acid-induced ulcer Inhibitory activity of the inventive compound on the acetic acid-induced ulcer was evaluated by using male Sprague-Dawley rats. Thus, rats were starved for 5 hours prior to carrying out the experiment. 20 Microliter of 30% acetic acid was injected into the submucosal layer of the stomach using a microsyringe to induce a circular ulcer on the stomach. […] The percentages of the healing of the ulcer were calculated by comparing them with that of reference group.

Data set [3] can be described thus: Acute toxicity (oral, 14 days). Conditions: mouse, in vivo, po; for mortality at 336 h: read-out: Lethality (%); for LD50 at 336 h: 14 days. The class given is in vivo. As to the method:
(§1) A median lethal dose (LD50) an index of acute toxicity was measured and is Table 4

Another data set has as its system ICR mice. The data set can be described thus: Acute toxicity (oral, 14 days). In kind it is in vivo. The conditions noted are these: 6 animals. Here is the method:
as §1

Setting [4] is: preincubation 30 min, 37° C., pH 7.4.

As for `CCCC(=O)c1cnc2c(OC)nccc2c1N[C@H](C)c1ccccc1` [Example 21], the ED50 (in general, the midpoint of the dose-response relation) in the data set on stress-induced ulcer is 13 mg/kg; in data set [1], 2.1 mg/kg; in the data set with ethanol-induced lesions it was 11.2 mg/kg; with gastric secretion, 11.7 mg/kg; in the data set with mepirizole-induced ulcer, 64.1 mg/kg. Further, it took 45.7 µM to reach half-maximal inhibition against H^+ /K^+ ATPase (setting [4]) (IC50). The “Acetic acid: Percentage of healing in 30 mg/kg” value in data set [2] came to 22.0%. Besides, the mortality at 336 h in data set [3] (40 mg/kg, female, 40 mg/kg oral) was 0%; in data set [3] (40 mg/kg, male, 40 mg/kg oral), 0%; in data set [3] (200 mg/kg, female, 200 mg/kg oral), 0%; in data set [3] (200 mg/kg, male, 200 mg/kg oral), 0%; in [3] (1000 mg/kg, female, 1000 mg/kg oral), 17%; in [3] (1000 mg/kg, male, 1000 mg/kg oral), 0%. The mortality at 336 h amounted to 100% in data set [3] (5000 mg/kg, female, 5000 mg/kg oral) and 100% in data set [3] (5000 mg/kg, male, 5000 mg/kg oral). In addition, the figures for the LD50 at 336 h in [3] (female) and in data set [3] (male) were 1130 mg/kg and 2340 mg/kg, respectively. The “No. of Death” value in the data set on ICR mice (female, 40 mg/kg oral) is listed as 0; in the data set with ICR mice (female, 200 mg/kg oral), 0; in the data set on ICR mice (female, 1000 mg/kg oral), 1; in the data set with ICR mice (female, 5000 mg/kg oral), 6; in the data set on ICR mice (male, 40 mg/kg oral) it was 0; in the data set on ICR mice (male, 200 mg/kg oral), 0. Further, the “No. of Death” value amounted to 0 in the data set on ICR mice (male, 1000 mg/kg oral) and 6 with ICR mice (male, 5000 mg/kg oral).

Turning to `CCOC(=O)c1cnc2c(N3CCOCC3)nccc2c1Nc1ccccc1OC` [Example 49], the “Gastric juice Secretion Inhibition (% at 12.5 mg/kg)” value in the data set with gastric secretion is on record as 35.8%.

Consider `CCCC(=O)c1cnc2c(OC)nccc2c1Nc1ccc2c(c1)CCC2` [Example 31], for which the IC50 (as a rule, the midpoint of a concentration-inhibition curve) at H^+ /K^+ ATPase (setting [4]) stood at 14.9 µM.

The compound `CCCC(=O)c1cnc2c(OC(C)C)nccc2c1Nc1ccccc1C` [Example 43, 3-Butyryl-8-isopropoxy-4-(2-methylphenylamino)-1,7-naphthyridine] came in with an IC50 at H^+ /K^+ ATPase (setting [4]) of 18.2 µM.

For `CCOC(=O)c1cnc2c(N3CCOCC3)nccc2c1Nc1cccc(C(F)(F)F)c1` [Example 55], at H^+ /K^+ ATPase (setting [4]), the IC50 turned out to be 16.8 µM.

With `CCCC(=O)c1cnc2c(OCC)nccc2c1N[C@H](C)c1ccccc1` [Example 37], in the data set with gastric secretion, the ED50 came to 13.3 mg/kg. The compound also gave a 50% inhibitory concentration (IC50) against H^+ /K^+ ATPase (setting [4]) of 28 µM.

In turn, `CCCC(=O)c1cnc2c(OC(C)C)nccc2c1Nc1ccccc1C(F)(F)F` [Example 45] returned an IC50 on H^+ /K^+ ATPase (setting [4]) of 39.3 µM.

With `CCCC(=O)c1cnc2c(OCC)nccc2c1NCCCCc1ccccc1` [Example 41], 12.6 µM corresponded to half-maximal inhibition at H^+ /K^+ ATPase (setting [4]) (IC50).

`CCCC(=O)c1cnc2c(OC(C)C)nccc2c1Nc1ccccc1SC` [Example 44] came in with a half-inhibitory concentration (IC50) on H^+ /K^+ ATPase (setting [4]) of 11.4 µM.

On to `COc1ccc2[nH]c([S+]([O-])Cc3ncc(C)c(OC)c3C)nc2c1` (stereo not drawn) [Omeprazole, reference compound], for which the ED50 with stress-induced ulcer is 4.4 mg/kg; in data set [1] it was 1.2 mg/kg; in the data set with ethanol-induced lesions it was 17.5 mg/kg; in the data set with mepirizole-induced ulcer it was 2.8 mg/kg. Further, 57.5 µM corresponded to half-maximal inhibition at H^+ /K^+ ATPase (control) (IC50). Also, the “Acetic acid: Percentage of healing in 30 mg/kg” value in [2] is 27.1%.

With `CCCCc1ccc(Nc2c(C(=O)OCC)cnc3c(OC)nccc23)cc1` [Example 13], the “Gastric juice Secretion Inhibition (% at 12.5 mg/kg)” value in the data set with gastric secretion was found to be 42.1%. At H^+ /K^+ ATPase (setting [4]), this compound came in with an IC50 of 25.1 µM.

`CCOC(=O)c1cnc2c(OC)nccc2c1Nc1ccc(F)cc1` [Example 11] had an IC50 against H^+ /K^+ ATPase (setting [4]) of 31.6 µM.

As to `CCCC(=O)c1cnc2c(OC)nccc2c1NC1CCCc2ccccc21` (stereo not drawn) [Example 32], at H^+ /K^+ ATPase (setting [4]), the IC50 is 75 µM.

For the compound `CCOC(=O)c1cnc2c(OC)nccc2c1N[C@@H](C)c1ccccc1` [Example 15], the 50% effective dose (ED50) in data set [1] was 2.1 mg/kg; in the data set on ethanol-induced lesions, 12.8 mg/kg; with gastric secretion it was 30 mg/kg.

In turn, `CCCC(=O)c1cnc2c(OC)nccc2c1NCCCCc1ccccc1` [Example 29] came in with an IC50 at H^+ /K^+ ATPase (setting [4]) of 26.9 µM.

For `CCCC(=O)c1cnc2c(OCC)nccc2c1Nc1ccccc1SC` [Example 34], the ED50 in [1] came to 4.9 mg/kg; with ethanol-induced lesions, 30.6 mg/kg; with gastric secretion, 30 mg/kg. This compound had an IC50 against H^+ /K^+ ATPase (setting [4]) of 23.4 µM.

With `CCCC(=O)c1cnc2c(OCC)nccc2c1NC1CCCc2ccccc21` (stereo not drawn) [Example 42], on H^+ /K^+ ATPase (setting [4]), the IC50 stood at 14.7 µM.

Turning to `CCCCc1ccc(Nc2c(C(=O)CCC)cnc3c(OCC)nccc23)cc1` [Example 35], half-maximal inhibition on H^+ /K^+ ATPase (setting [4]) (IC50) required 20.5 µM.
